# Data from patent publication US4593047A, “Process for the preparation of 3-trifluoromethyl-and 2,5-dimethyl-4'-hdyroxy-α-ethyl-benzhydrol, and pharmaceutical compositions containing them” (Richter Gedeon Vegyeszeti Cyar RT, priority 1982, dated 1986).
# What was measured:
# enzyme system of liver = details: cited from earlier work
# [1] = Ethanolic narcosis period as a function of the pretreatment period (Table 2); type: in vivo, Hann.-Wistar rats; details: 40.0 mg./kg. oral, n=10
# Description: (§1) The effect of the compounds according to the invention on ethanolic narcosis period was tested on Hann.-Wistar rats of both sexes, each weighing 160 to 180 g. The animals were fasted for 16 hours prior to treatment and tests were performed on groups of 10. The animals were treated with various doses of the test compounds orally. One hour after treatment the rats were administered a […]. dose of ethanol intraperitoneally, and their narcosis period was measured from the elapse of the righting reflex until a spontaneous correction of the body position. The mean value of the narcosis period and the percentage difference related to the control were calculated.
# There was examined the effect of a 40.0 mg./kg. dose of the above test compound on the ethanolic narcosis period as a function of the pretreatment-period, following the test procedure described above.
# [2] = Acute toxicity, single oral dose, 14 days observation; type: in vivo
# Description: The acute toxicity of the compound A was determined on Hann.-Wistar rats of both sexes, each weighing 160 to 180 g. in groups of 10. The animals were administered a single 2000 mg./kg. oral dose of the test compound, and then observed for 14 days.
# [3] = Ethanolic narcosis period test (Table 1, 1 hour oral pretreatment); type: in vivo, Hann.-Wistar rats; details: 1 hour before ethanol i.p., n=10, control = 100 ± 7.9
# Description: as §1, with “calculated. The results are given in Table 1. x±S.E.=mean value±standard error n=number of animals The control group was treated with placebo and a […]. dose of ethanol. Narcosis period of the control: 87.4±6.91 (x±S.E.) min.” for “calculated.”
# [4] = in vivo; cited from earlier work
# [5] = in vivo; cited from earlier work; remark: listed apart in the source
# [6] = cited from earlier work
smiles,measurement,setting,value
"CCC(O)(c1ccccc1)c1cc(C)ccc1C (stereo not drawn) [2,5-dimethyl-α-ethyl-benzhydrol]",Inducing effect on the enzyme system of liver,enzyme system of liver,shows a similar activity
CCC(O)(c1ccccc1)c1cccc(C(F)(F)F)c1 (stereo not drawn) [3-trifluoromethyl-α-ethyl-benzhydrol],Inducing effect on the enzyme system of liver,enzyme system of liver,has an inducing effect on the enzyme system of liver
"CCC(O)(c1ccc(O)cc1)c1cccc(C(F)(F)F)c1 (stereo not drawn) [A, 3-trifluoromethyl-4'-hydroxy-α-ethyl-benzhydrol]","Narcosis period, treated","[1]; pretreatment 0.5 hours, control 87.2 ± 6.23",54.1 ± 3.49
same,"Narcosis period, % difference from the control",[1]; pretreatment 0.5 hours,-38%
same,"Narcosis period, treated","[1]; pretreatment 1.0 hours, control 85.1 ± 4.91",45.1 ± 2.30
same,"Narcosis period, % difference from the control",[1]; pretreatment 1.0 hours,-47%
same,"Narcosis period, treated","[1]; pretreatment 2.0 hours, control 85.5 ± 9.97",29.9 ± 5.08
same,"Narcosis period, % difference from the control",[1]; pretreatment 2.0 hours,-65%
same,"Narcosis period, treated","[1]; pretreatment 3.0 hours, control 83.4 ± 8.46",75.1 ± 4.51
same,"Narcosis period, % difference from the control",[1]; pretreatment 3.0 hours,-10%
same,Toxicity,"[2]; oral, single dose",toxicity is low
same,LD50 at 336 h,"[2]; rat, in vivo, oral, single dose, 14 days observation",> 2000 mg/kg
same,mortality at 336 h,"[2]; rat, in vivo, single 2000 mg./kg. oral dose, 14 days observation, read-out: Animals perished",40%
same,Ethanolic narcosis period (Control ± S.E. %),[3]; 40.0 mg./kg. oral,53 ± 5.8%
same,Ethanolic narcosis period (Control ± S.E. %),[3]; 80.0 mg./kg. oral,62 ± 5.1%
"N[C@@H](CS)C(=O)O [L-cysteine, reference compound]",Ethanolic narcosis period (Control ± S.E. %),[3]; 500.0 mg./kg. oral,63 ± 4.2%
same,Ethanolic narcosis period (Control ± S.E. %),[3]; 1000.0 mg./kg. oral,66 ± 5.9%
same,Alcoholic intoxication,[4],shortened
same,Alcoholic narcosis,[4],shortened
CC(N)Cc1ccccc1 (stereo not shown) [amphetamine],Motoric incoordination (ataxia),[5],prolong the motoric incoordination (ataxia)
same,Narcotizing effect of alcohol,[5],decrease the narcotizing effect of alcohol
Cn1c(=O)c2c(ncn2C)n(C)c1=O [caffeine],Motoric incoordination (ataxia),[5],prolong the motoric incoordination (ataxia)
same,Narcotizing effect of alcohol,[5],decrease the narcotizing effect of alcohol
CC(N)(Cc1ccc(O)cc1)C(=O)O (stereo not drawn) [α-Methyl-p-tyrosine],Effect on locomotoric hyperactivity,"[6]; mice, dose range in which spontaneous locomotor activity is decreased",normalizing effect
same,Spontaneous locomotor activity,[6]; same dose range as normalizing effect on hyperactivity,decreases the spontaneous locomotor activity
